# Measured values from patent US10590393B2, “Retinoic acid enhanced human stem cell derived blood brain barrier model” (Wisconsin Alumni Research Foundation, priority 2012, dated 2020).
# Legend:
# DF19-9-11T-derived BMECs = assay: Efflux transporter substrate accumulation; assay type: cell-based, human; details: due to RA treatment
# Experimental: (§1) hiPSC-derived BMECs differentiated in the presence or absence of RA were subcultured onto 12-well plates in EC medium with 10 μM RA or equivalent DMSO depending on the differentiation condition. […] Cells were washed three times with phosphate-buffered saline (PBS) and then lysed with PBS containing 5% Triton X-100 (TX-100; Fisher). Fluorescence (485 nm excitation and 530 nm emission) was measured using a plate reader and radioactivity was measured on a scintillation counter. Fluorescence/radioactivity was normalized on a per cell basis by counting trypsin-dissociated cells on a hemacytometer. Duplicate or triplicate wells were used for each condition to calculate mean and standard deviation. Each experiment was conducted twice to ensure biological reproducibility.
# IMR90-4-derived BMECs = assay: Efflux transporter substrate accumulation; assay type: cell-based, human; details: 10 μM RA vs. DMSO-treated controls; 1 h at 37° C.
# Experimental: as §1
smiles,measurement,setting,value
"CC1=C(/C=C/C(C)=C/C=C/C(C)=C/C(=O)O)C(C)(C)CCC1 [RA, retinoic acid]",reduction in rhodamine 123 accumulation,DF19-9-11T-derived BMECs,1.5 fold
same,decrease of DCFDA accumulation,IMR90-4-derived BMECs,2.9 fold
same,decrease of colchicine accumulation,IMR90-4-derived BMECs,2.4 fold
same,decrease of doxorubicin accumulation,IMR90-4-derived BMECs,1.6 fold
same,decrease of rhodamine 123 accumulation,IMR90-4-derived BMECs,1.4 fold
